The test has as its system tetrabenazine-induced sedation and depression in mice. Kind of test: Antagonism of tetrabenazine-induced depression in mice orally at 1 hour post-drug. The test is classed as in vivo, Carworth CF1 S female mice. Particulars: Mus musculus, oral, 1 hour post-drug (30 minutes after tetrabenazine 32 mg/kg intraperitoneally). The text has this: A standard procedure for detecting and comparing the antidepressant activity of compounds in this series for which there is good correlation with human efficacy is the prevention of tetrabenazine-induced sedation and depression in mice. (Everett, "The Dopa Response Potentiation Test and Its Use in Screening for Antidepressant Drugs", pp. 164-167 in "Antidepressant Drugs" [Proceedings of the First International Symposium], S. Garattini and M. N. G. Dukes, eds., 1967.). Groups of 10 Carworth CF1 S female mice, 18-21 g. each, were fasted 1.5 hours and were intubated with antagonist compounds at oral doses of 0, 5, 25, and 125 mg/kg or 0, 1, 3, 9, 27, and 81 mg/kg in 0.20 ml. of 1% Methocel (methylcellulose). The mice were challenged 30 minutes later with tetrabenazine (as the methane-sulfonate), 32 mg/kg intraperitoneally (dissolved in 0.20 ml. 0.05M KCl at pH 2.0). One hour after antagonist (30 minutes after tetrabenazine), the mice were examined for signs of exploratory activity and ptosis (eyelid closure). Normal exploratory activity (relief from sedation) was recorded when a mouse lifted by the tail from a group of 10 in a testing box and placed on a stainless steel testing box lid (12.5 × 8 inches with 0.33 inch mesh) either turned its head horizontally 30° in both directions or moved to the edge of the screen within 10 seconds after being placed on the screen. Relief from ptosis was recorded when exactly 2 seconds after placing the mouse facing the observer, lid closure was less than 50% in both eyes. The following table gives results. |ANTAGONISM OF TETRABENAZINE-INDUCED |DEPRESSION IN MICE ORALLY AT 1 HOUR |POST-DRUG

[1] abbreviates: lid closure less than 50% in both eyes, read-out: ED50 for prevention of ptosis.
[2] abbreviates: relief from sedation (exploratory activity), read-out: ED50 for prevention of exploratory loss.

Molecules are shown by their SMILES. Like-named read-outs stand apart in the source and are kept apart here. Some results are limits rather than exact numbers.

Among the data in patent publication US4091102A, “Anti-depressant trans-hexahydropyrido[3,4-b]indoles” (Endo Laboratories, Inc., priority 1976, dated 1978) are ED50 values, retold here.

As to `CN(C)CCC=C1c2ccccc2CCc2ccccc21` [Amitriptyline, amitriptyline, reference compound], the ED50 by setting is: under setting [1], 1.7 mg/kg; under setting [2], 4.7 mg/kg.
As for `CCC1C2C(CCN1C)c1ccccc1N2c1ccccc1` (stereo not drawn) [Ie], the ED50 under setting [1] was 9.1 mg/kg and the ED50 under setting [2] stood at 11.2 mg/kg.
Turning to `CCN1CC2C(CC1C)c1ccccc1N2c1ccccc1` (stereo not drawn) [Ij], the 50% effective dose (ED50) reads like this: under setting [1], < 5 mg/kg; under setting [2], < 5 mg/kg.
For the compound `CCC1C2C(CCN1CC)c1ccccc1N2c1ccccc1` (stereo not drawn) [If], the 50% effective dose (ED50) is, setting by setting: under setting [1], 27 mg/kg; under setting [2], 38 mg/kg.
With `CC1NCCC2c3ccccc3N(c3ccccc3)C12` (stereo not drawn) [Ig], the ED50 by setting is: under setting [1], 25 mg/kg; under setting [2], 31 mg/kg.
The like results for `CCCN1CCC2c3ccccc3N(c3ccccc3)C2C1C` (stereo not drawn) [Ic] were, in that order, 14 mg/kg and 38 mg/kg.
In the case of `CC(C)N1CCC2c3ccccc3N(c3ccccc3)C2C1C` (stereo not drawn) [Id], the median effective dose (ED50) runs as follows: under setting [1], 11.2 mg/kg; under setting [2], 19 mg/kg.
On to `CCN1CCC2c3ccccc3N(c3ccccc3)C2C1C` (stereo not drawn) [Ia], for which the ED50 by setting is: under setting [1], 3 mg/kg; under setting [2], 4.2 mg/kg.
The corresponding values for `CC1C2C(CCN1C)c1ccccc1N2c1ccccc1` (stereo not drawn) [Ib] are 16 mg/kg and 38 mg/kg.

As usually defined, the ED50 is the dose that gives a 50% effect, or the effect in half of the subjects.
